Data from patent US20230365619A1, “CRYSTALLINE SODIUM CHOLESTERYL SULFATE” (Durect Corporation, priority 2020, published 2023).

Assay: Dynamic Vapor Sorption/Desorption (DVS)
Type: physicochemical
Conditions: FIG. 4

CC(C)CCC[C@@H](C)[C@H]1CC[C@H]2[C@@H]3CC=C4C[C@@H](OS(=O)(=O)[O-])CC[C@]4(C)[C@H]3CC[C@]12C.[Na+] [Form F, sodium cholesteryl sulfate]
weight change upon desorption (DVS) (desorption 95% to 5% relative humidity): 20.8% | weight gain on sorption (DVS) (ramping from 5% to 95% relative humidity, 10% RH increments, nitrogen purge): 23.8% | DVS sorption profile (onset of weight gain) (ramping from 5% to 95% relative humidity): little weight gain until 55% relative humidity
